One data set relates to MV-4-11 cells. Briefly: CellTiter-Glo cell viability assay, MV-4-11. Format: cell-based, human. The note with it: up to 10 μM; 24 h. As to the method:
Cell Viability Assay. MV-4-11 cells were plated at a density of 2×10^4 cell per well of a 96 well white-bottom plate, and left to grow overnight in 50 μl of IMDM (Invitrogen, arlsebad, CA, USA) supplemented with 10% (v/v) Fetal bovine serum (FBS) (Thermo Fisher, Waltham, MA, USA) and 1% (v/v) penicillin/streptomycin (pen/strep) (#15140122, Thermo Fisher, Waltham, MA, USA) at 37° C., 5% CO2, and 95% humidity. […] These cells were then left to incubate at 37° C., 5% CO2, and 95% humidity for one day prior to undergoing spectrophotometric analysis. 22RV1 cells were plated at a density of 2×10^4 cell per well of a 96 well white-bottom plate, and left to grow overnight in 100 μL of RPMI-1640 (Invitrogen, Carlsebad, CA, USA) supplemented with 10% (v/v) fetal bovine serum (FBS) (Thermo Fisher, Waltham, MA, USA) and 1% (v/v) penicillin/streptomycin (pen/strep) (#15140122, Thermo Fisher, Waltham, MA, USA) at 37° C., 5% CO2, and 95% humidity. […] Plates were subjected to 2 mins on an orbital shaker to encourage lysis and left for a further 5 mins to reach peak luminescence. Luminescence was then recorded on a BMG Labtech PHERAstar luminescence plate reader with recommended settings. Data extracted from this analysis was analysed with Graphpad Prism (v. 8.2.0, GraphPad) and normalized to the DMSO vehicle control. […]

The next data set deals with T1, VHL (VCB protein) (Homo sapiens, UniProt P40337).
T1 construct: N-terminally Hiss-tagged VHL (54-213); His6 (N, cleaved yes); made in house; host or cells: E. coli
Briefly: Fluorescence polarization competitive binding assay, binary binding. The note with it: compound alone; displacement of HIF-1a peptide probe; read-out: binary affinity to VHL Kd. Here is the method: Protein Expression and Purification. […] The complex was further purified by anion exchange followed by gel filtration chromatography.
Fluorescence Polarization Binding Assay. […] All components were dissolved from stock solutions using 100 mM Bis-Tris propane, 100 mM NaCl, 1 mM DTT, pH 7.0, to yield a final assay volume of 15 μL. DMSO was added as appropriate to ensure a final concentration of 2% v/v. […] Percentage displacement values were obtained by normalization of controls were plotted against Log[Compound]. IC50 values were determined for each titration using nonlinear regression analysis with Prism (v. 9.1.0, GraphPad). […] Cooperativity values (a) for each PROTAC were calculated using the ratio: α=binary Kd (−bromodomain)/ternary Kd (+bromodomain).
A general note: Polarisation of emitted light reports the rotation of a fluorescent probe.

The text below walks through data of patent US20250130239A1, “PROTEIN DEGRADER” (University of Dundee, priority 2021, published 2025).

The term Kd denotes the free concentration of one partner at which half of the binding sites on the other are occupied at equilibrium, for simple one-to-one binding. As for `CC[C@@H](C(=O)OCCOCCOCCOCC(=O)N[C@H](C(=O)N1C[C@H](O)C[C@H]1C(=O)NCc1ccc(-c2scnc2C)cc1)C(C)(C)C)[C@@H]1N=C(c2ccc(Cl)cc2)c2c(sc(C)c2C)-n2c(C)nnc21` (single isomer, unassigned) [AGB1 (46)], the cytotoxicity result in the data set on MV-4-11 cells is “lack of cytotoxicity”. Besides, the Kd on VHL (VCB protein) came to 0.125 µM.
